Experimental data as given in paper PMC8909834, “An Orally Bioavailable and Highly Efficacious Inhibitor of CDK9/FLT3 for the Treatment of Acute Myeloid Leukemia” (Cancers, 2022).

Experiments:
Type in all cases: biochemical
NUAK1 = molecular target: T1, NUAK1 (Homo sapiens, UniProt O60285); test: Ki determination for kinases with greater than 90% inhibition (Reaction Biology); details: calculated from IC50 using the Cheng-Prusoff equation
T1 construct: purchased Reaction Biology Corporation (contract assay)
Protocol: (§1) Kinase assay. The ADP Glo^TM kinase assay (Promega, Madison, WI, USA) was used to assess the inhibition by CDDD11-8 of CDKs 1, 2, 4, 6, 7, and 9, as well as the mutant isoforms of FLT3. The assays were performed in accord with the manufacturer’s protocol (Promega) as described previously. Briefly, serial three-fold dilutions of CDDD11-8 were prepared in 100% DMSO from a 2 mM stock solution, followed by 1:40 dilution into Milli-Q water. Subsequently, 1 µL of each sample was incubated with 4 µL of kinase mixture containing a particular CDK enzyme and its substrate, standard kinase buffer [3 mM MgCl2, 50 mM HEPES-NaOH pH 7.5, 3 mM MnCl2, 3 µM Na-orthovanadate, 1 mM dithiothreitol (DTT)], kinase dilution buffer (containing 0.25 mg/mL PEG20,000, 50 mM HEPES-NaOH pH 7.5, 1 mM DTT), and ATP at 37 °C for 30 to 40 min. The final reaction mixture contained 0.5% DMSO in all samples, and the applied kinase concentrations were 1, 1, 10, 40, 20, and 50 nM for CDK1, 2, 4, 6, 7, and 9, respectively. The reaction was stopped by adding ADP-Glo reagent and the mixture was incubated further in the dark at room temperature for 40 min. As a final step, kinase detection reagent was added to each mixture and incubated at room temperature for 30 to 60 min. Luminescence was read using an EnVision® multilabel plate reader (PerkinElmer, Beaconsfield, UK), and half-maximum inhibitory concentrations (IC50) were calculated using a non-linear regression model with a variable slope, plotting log (inhibitor concentration) vs. response using the following formula: Ar%=Bottom+Top−Bottom/1+Inhibitor Concentration/IC50^HillSlope where the relative activity Ar (%) is the signal relative to the controls, IC50 is the half maximum concentration, Hillslope is the steepness of the dose-response curve, Top and Bottom are plateaus reflecting the maximum and minimum in responses on the Y-axis (GraphPad Prism version 7, San Diego, CA, USA). Ki values were calculated from the IC50 using the Cheng−Prusoff equation [32]. Extensive specificity assessment was carried out by Reaction Biology Corporation (Malvern, PA, USA) with 369 kinases using 1 µM CDDD11-8 concentration in a Kinase Hotspot radiolabel assay (for experimental details, please see (Reaction Biology https://www.reactionbiology.com/). Subsequently, Ki values were determined for kinases with greater than 90% inhibition.

MST1 = molecular target: T2, MST1 (Homo sapiens, UniProt Q13043); test: as above; details: calculated from IC50 using the Cheng-Prusoff equation
T2 construct: purchased Reaction Biology Corporation (contract assay)
T2 sequence (Q13043 whole entry): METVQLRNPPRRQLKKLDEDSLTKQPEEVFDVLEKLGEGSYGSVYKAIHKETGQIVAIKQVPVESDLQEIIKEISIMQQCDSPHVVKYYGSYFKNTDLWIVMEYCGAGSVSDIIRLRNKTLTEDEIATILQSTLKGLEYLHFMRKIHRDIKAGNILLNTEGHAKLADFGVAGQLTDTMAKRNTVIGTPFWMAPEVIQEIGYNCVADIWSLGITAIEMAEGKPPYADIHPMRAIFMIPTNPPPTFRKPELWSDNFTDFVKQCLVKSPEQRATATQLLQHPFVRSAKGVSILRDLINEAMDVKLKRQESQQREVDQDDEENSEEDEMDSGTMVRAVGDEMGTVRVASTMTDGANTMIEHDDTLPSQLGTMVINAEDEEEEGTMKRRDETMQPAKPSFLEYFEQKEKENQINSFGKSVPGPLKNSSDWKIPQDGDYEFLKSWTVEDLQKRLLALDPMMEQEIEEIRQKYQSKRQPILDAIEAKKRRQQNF
Protocol: as §1

MINK = molecular target: T3, MINK (Homo sapiens, UniProt Q8N4C8); test: as above; details: calculated from IC50 using the Cheng-Prusoff equation
T3 construct: purchased Reaction Biology Corporation (contract assay)
Protocol: as §1

TNIK = molecular target: T4, TNIK (Homo sapiens, UniProt Q9UKE5); test: as above; details: calculated from IC50 using the Cheng-Prusoff equation
T4 construct: purchased Reaction Biology Corporation (Kinase HotSpot)
T4 sequence (Q9UKE5 whole entry): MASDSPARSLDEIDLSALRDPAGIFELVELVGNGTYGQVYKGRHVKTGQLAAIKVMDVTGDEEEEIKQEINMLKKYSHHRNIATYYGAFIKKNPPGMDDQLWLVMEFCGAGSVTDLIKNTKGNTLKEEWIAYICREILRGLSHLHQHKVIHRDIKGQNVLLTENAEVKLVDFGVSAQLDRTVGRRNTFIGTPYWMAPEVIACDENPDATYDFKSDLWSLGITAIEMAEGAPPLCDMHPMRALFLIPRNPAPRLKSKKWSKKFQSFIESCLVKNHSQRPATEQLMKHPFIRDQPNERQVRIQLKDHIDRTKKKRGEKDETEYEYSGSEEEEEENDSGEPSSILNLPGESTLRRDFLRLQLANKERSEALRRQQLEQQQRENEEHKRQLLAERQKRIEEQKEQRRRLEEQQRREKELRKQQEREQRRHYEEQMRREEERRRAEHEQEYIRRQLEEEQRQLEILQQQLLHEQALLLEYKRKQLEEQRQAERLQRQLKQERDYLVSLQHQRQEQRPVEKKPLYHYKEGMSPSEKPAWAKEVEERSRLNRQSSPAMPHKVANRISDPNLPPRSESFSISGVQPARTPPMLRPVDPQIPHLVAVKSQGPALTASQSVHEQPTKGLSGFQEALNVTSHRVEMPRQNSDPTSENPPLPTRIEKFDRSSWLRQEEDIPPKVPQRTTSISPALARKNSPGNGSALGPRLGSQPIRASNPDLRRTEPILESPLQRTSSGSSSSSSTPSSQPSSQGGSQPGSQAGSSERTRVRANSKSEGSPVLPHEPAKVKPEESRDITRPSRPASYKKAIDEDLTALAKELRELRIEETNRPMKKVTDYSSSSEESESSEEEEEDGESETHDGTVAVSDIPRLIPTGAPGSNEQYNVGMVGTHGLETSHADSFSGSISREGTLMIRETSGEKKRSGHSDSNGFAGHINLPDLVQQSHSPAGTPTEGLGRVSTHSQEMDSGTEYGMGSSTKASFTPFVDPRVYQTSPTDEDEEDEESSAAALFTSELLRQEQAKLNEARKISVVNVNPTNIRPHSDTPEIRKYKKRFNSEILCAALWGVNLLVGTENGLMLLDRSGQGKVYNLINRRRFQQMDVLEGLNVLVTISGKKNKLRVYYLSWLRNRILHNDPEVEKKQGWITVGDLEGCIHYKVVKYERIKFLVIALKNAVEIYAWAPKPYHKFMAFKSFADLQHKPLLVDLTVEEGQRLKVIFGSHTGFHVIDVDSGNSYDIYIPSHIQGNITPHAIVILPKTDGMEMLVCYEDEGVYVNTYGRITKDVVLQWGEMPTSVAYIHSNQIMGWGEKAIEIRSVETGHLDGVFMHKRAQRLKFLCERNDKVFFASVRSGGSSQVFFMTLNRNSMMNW
Protocol: as §1

GLK = molecular target: T5, GLK (Homo sapiens, UniProt Q8IVH8); test: as above; details: calculated from IC50 using the Cheng-Prusoff equation
T5 construct: purchased Reaction Biology Corporation (contract assay)
T5 sequence (Q8IVH8 whole entry): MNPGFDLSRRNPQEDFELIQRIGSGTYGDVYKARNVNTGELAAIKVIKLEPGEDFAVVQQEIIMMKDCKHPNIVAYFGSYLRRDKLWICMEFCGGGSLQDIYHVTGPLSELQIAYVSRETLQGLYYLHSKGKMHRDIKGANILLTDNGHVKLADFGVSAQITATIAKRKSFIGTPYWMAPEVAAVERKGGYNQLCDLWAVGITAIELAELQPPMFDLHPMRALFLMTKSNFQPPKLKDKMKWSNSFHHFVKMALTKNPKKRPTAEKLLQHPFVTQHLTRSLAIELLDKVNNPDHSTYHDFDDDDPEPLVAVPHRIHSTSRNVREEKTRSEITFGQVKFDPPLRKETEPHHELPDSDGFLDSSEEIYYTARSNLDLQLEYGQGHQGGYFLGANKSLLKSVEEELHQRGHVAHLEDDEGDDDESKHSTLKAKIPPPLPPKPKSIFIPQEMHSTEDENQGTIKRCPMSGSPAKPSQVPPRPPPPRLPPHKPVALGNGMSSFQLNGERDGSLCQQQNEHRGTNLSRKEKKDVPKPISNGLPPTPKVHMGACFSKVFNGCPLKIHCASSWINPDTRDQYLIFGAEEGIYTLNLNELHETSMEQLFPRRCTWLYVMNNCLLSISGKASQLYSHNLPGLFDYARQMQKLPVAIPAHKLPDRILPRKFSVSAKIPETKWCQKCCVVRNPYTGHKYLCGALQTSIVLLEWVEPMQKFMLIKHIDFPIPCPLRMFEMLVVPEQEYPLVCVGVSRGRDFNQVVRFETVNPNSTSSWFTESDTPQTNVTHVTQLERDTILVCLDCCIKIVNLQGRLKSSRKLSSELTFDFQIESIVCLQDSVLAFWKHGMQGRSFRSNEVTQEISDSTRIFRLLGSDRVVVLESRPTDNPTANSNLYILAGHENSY
Protocol: as §1

TRKC = molecular target: T6, TRKC (Homo sapiens, UniProt Q16288); test: as above; details: calculated from IC50 using the Cheng-Prusoff equation
T6 construct: purchased Reaction Biology Corporation (contract assay)
T6 sequence (Q16288 32-839): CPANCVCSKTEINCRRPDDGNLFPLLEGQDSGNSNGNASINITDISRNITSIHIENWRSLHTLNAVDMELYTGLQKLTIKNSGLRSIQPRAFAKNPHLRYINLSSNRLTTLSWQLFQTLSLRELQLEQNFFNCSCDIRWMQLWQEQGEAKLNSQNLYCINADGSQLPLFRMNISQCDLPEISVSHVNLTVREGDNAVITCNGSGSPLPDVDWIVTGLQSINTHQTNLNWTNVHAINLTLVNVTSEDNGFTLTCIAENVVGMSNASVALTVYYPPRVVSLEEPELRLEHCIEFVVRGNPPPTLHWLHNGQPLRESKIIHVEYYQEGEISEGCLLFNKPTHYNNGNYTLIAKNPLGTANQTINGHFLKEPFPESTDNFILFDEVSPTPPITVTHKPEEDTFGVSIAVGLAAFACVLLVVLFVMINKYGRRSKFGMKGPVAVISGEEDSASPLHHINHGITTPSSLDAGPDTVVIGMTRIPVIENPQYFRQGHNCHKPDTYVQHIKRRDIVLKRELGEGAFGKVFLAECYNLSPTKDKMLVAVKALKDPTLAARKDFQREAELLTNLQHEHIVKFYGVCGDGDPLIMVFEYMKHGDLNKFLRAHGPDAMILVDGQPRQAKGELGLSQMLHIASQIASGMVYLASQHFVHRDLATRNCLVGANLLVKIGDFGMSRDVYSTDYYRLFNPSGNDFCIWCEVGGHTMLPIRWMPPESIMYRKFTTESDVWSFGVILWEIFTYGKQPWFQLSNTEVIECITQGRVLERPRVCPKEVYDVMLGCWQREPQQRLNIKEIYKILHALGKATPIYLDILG
Protocol: as §1

FMS = molecular target: T7, FMS (Homo sapiens, UniProt P07333); test: Kinase Hotspot radiolabel assay; details: read-out: % Residual Activity
T7 construct: purchased Reaction Biology Corporation (Kinase HotSpot)
T7 sequence (P07333 20-972): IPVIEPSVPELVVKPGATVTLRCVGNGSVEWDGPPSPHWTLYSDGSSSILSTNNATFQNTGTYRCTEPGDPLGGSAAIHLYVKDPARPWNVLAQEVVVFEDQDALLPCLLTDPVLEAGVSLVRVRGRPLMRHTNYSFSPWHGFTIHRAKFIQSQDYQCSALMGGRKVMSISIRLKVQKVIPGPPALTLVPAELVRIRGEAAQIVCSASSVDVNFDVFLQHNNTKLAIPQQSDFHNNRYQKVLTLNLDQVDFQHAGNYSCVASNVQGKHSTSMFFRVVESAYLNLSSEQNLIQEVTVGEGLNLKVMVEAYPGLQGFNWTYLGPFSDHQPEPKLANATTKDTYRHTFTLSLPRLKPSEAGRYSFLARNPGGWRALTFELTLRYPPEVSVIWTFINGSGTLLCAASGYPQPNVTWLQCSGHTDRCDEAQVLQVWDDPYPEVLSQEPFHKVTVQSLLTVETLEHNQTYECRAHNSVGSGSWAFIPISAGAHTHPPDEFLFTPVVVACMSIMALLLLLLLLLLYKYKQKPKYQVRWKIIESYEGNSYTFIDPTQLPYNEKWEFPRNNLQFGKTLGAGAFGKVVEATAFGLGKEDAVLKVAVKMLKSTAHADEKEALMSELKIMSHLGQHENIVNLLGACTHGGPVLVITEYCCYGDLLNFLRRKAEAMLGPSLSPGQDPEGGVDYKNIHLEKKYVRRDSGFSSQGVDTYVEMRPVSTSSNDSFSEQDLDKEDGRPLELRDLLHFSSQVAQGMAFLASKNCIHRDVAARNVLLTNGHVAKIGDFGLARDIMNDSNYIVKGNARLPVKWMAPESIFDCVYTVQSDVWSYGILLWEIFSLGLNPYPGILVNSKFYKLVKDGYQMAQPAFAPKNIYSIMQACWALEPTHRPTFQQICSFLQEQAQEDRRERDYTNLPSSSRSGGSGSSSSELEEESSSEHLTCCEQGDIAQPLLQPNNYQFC
How it was run: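 Radiometric Hotspot screen: single test concentration of 1 µM, 369 kinases. Ki follow-up was applied only where inhibition exceeded 90%.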

`Cc1cnc(N[C@H]2CC[C@H](N)CC2)nc1-c1cnc2ccc(-c3ccccc3)cn12` [CDDD11-8] showed a Ki (NUAK1) of 12 nM, a Ki (MST1) of 9 nM and a Ki (MINK) of 14 nM. For the same molecule, the Ki (TNIK) was 3 nM, the Ki (GLK) was 28 nM and the Ki (TRKC) was 10 nM. The remaining activity at 1 µM (FMS) was 73%.
